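Values below derive from 48-hour exposures of cells grown in 96-well plates, with endpoints linearly interpolated between the two concentrations bracketing the appropriate inhibition level. GI50 marks 50% less growth.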 Activity calls are given as the source filed them. No stated cut-off is given here; in the data, active = GI50 up to about 1.1 µM and inactive = higher.
What was measured:
Assay in all cases: growth of human tumour cells (NCI), 48 h
UACC-62 = tested on: UACC-62
OVCAR-5 = tested on: OVCAR-5
HOP-62 = tested on: HOP-62
MOLT-4 = tested on: MOLT-4
RPMI-8226 = tested on: RPMI-8226
786-0 = tested on: 786-0
SR = tested on: SR
OVCAR-8 = tested on: OVCAR-8
PC-3 = tested on: PC-3
TK-10 = tested on: TK-10
A498 = tested on: A498
EKVX = tested on: EKVX
SK-OV-3 = tested on: SK-OV-3
MDA-N = tested on: MDA-N
T47D = tested on: T47D
Hs-578T = tested on: Hs-578T
SF-539 = tested on: SF-539
OVCAR-4 = tested on: OVCAR-4

Measured: GI50

CCC1(O)CC2CC(=O)OC2C1O (configuration not stated)
inactive: UACC-62 > 100 µM | OVCAR-5 > 100 µM | HOP-62 > 100 µM | MOLT-4 > 100 µM | RPMI-8226 > 100 µM | 786-0 > 100 µM | SR > 100 µM | OVCAR-8 > 100 µM | PC-3 > 100 µM | TK-10 > 100 µM | A498 > 100 µM | EKVX > 100 µM | SK-OV-3 > 100 µM | MDA-N > 100 µM | T47D > 100 µM | Hs-578T > 100 µM | SF-539 > 100 µM | OVCAR-4 > 100 µM

COc1ccc2nc3ccc(OC)cc3c(SCc3ccc([N+](=O)[O-])cc3)c2c1
inactive: UACC-62 > 100 µM | OVCAR-5 > 100 µM | HOP-62 78.9 µM | MOLT-4 > 100 µM | 786-0 24.7 µM | SR > 100 µM | OVCAR-8 52.7 µM | PC-3 68.2 µM | TK-10 34 µM | A498 > 100 µM | EKVX > 100 µM | SK-OV-3 > 100 µM | MDA-N > 100 µM | T47D > 100 µM | SF-539 39.2 µM | OVCAR-4 19 µM

CCOC(=O)Cn1nc2ccc(Nc3c(C)[n+]([O-])c4cc(F)c(OCC)cc4[n+]3[O-])cc2n1
inactive: OVCAR-5 > 100 µM | HOP-62 33 µM | MOLT-4 > 100 µM | RPMI-8226 > 100 µM | 786-0 29.8 µM | SR > 100 µM | OVCAR-8 > 100 µM | PC-3 > 100 µM | TK-10 27.5 µM | A498 > 100 µM | EKVX > 100 µM | SK-OV-3 56.4 µM | MDA-N > 100 µM | T47D > 100 µM | Hs-578T 40.7 µM | SF-539 83 µM | OVCAR-4 > 100 µM

CCOC(=O)C1C(C(C)C)C2(C#N)C(=N)OC1(C)C2(C#N)C#N (configuration not stated)
inactive: UACC-62 88.9 µM | OVCAR-5 > 100 µM | RPMI-8226 32.8 µM | 786-0 54 µM | OVCAR-8 > 100 µM | PC-3 > 100 µM | TK-10 > 100 µM | A498 > 100 µM | EKVX 78.3 µM | SK-OV-3 > 100 µM | MDA-N 16.2 µM | T47D 49.7 µM | Hs-578T > 100 µM | SF-539 > 100 µM

Cc1cc2c3ccccc3[nH]c2c2ccnc(C)c12
inactive: UACC-62 7.36 µM | OVCAR-5 7.36 µM | HOP-62 13.6 µM | MOLT-4 7.16 µM | RPMI-8226 3.21 µM | 786-0 1.65 µM | SR 6.62 µM | OVCAR-8 8.69 µM | PC-3 10.2 µM | TK-10 14.2 µM | EKVX 1.49 µM | SK-OV-3 14.2 µM | MDA-N 1.71 µM | T47D 16.7 µM | Hs-578T 13.6 µM | SF-539 2.76 µM | OVCAR-4 > 100 µM

O=C1N(CN2CCOCC2)CN(CN2CCOCC2)C(=O)N1Cc1ccc(CN2C(=O)N(CN3CCOCC3)CN(CN3CCOCC3)C2=O)cc1
inactive: UACC-62 31.2 µM | OVCAR-5 > 100 µM | HOP-62 > 100 µM | MOLT-4 35.2 µM | RPMI-8226 22.7 µM | 786-0 28.8 µM | SR 46.9 µM | OVCAR-8 42 µM | PC-3 45.6 µM | TK-10 > 100 µM | A498 > 100 µM | EKVX > 100 µM | SK-OV-3 > 100 µM | MDA-N 31.7 µM | T47D 53 µM | Hs-578T 22 µM | SF-539 44.8 µM | OVCAR-4 35.7 µM

Cc1nc(-c2cccnc2)sc1C(=O)/C=C/c1ccc(Cl)cc1Cl
inactive: UACC-62 83.9 µM | OVCAR-5 > 100 µM | HOP-62 > 100 µM | MOLT-4 73.6 µM | RPMI-8226 31.5 µM | 786-0 > 100 µM | OVCAR-8 > 100 µM | TK-10 > 100 µM | A498 > 100 µM | EKVX > 100 µM | SK-OV-3 > 100 µM | SF-539 > 100 µM
